Measurements as given in patent US5962424A, “Methods and compositions for targeting selectins” (Arch Development Corporation, priority 1995, dated 1999).

Columns and labels:
selectin = settings: cited from earlier work; for blocking of selectin binding to sLe^x: in vitro
[1] = tested on: E-selectin production in irradiated HUVEC; assay: x-ray-mediated E-selectin induction in HUVEC after inhibitor pretreatment (antibody labeling, flow cytometry); format: cell-based, human; settings: H7 100 nM, staurosporin 10 nM, BPB 10 μM, mepacrine 20 μM added prior to irradiation
Protocol: HUVEC and HMEC cells were grown to 90% confluence and irradiated with a GE Maxitron x-ray generator as previously described (Hallahan et al., 1989). Cells were removed from flasks with 0.1% collagenase, 0.01% EDTA, 0.25% BSA and pelleted in 12×75 mm polystyrene tubes. The supernatant was discarded and the cells were incubated with primary IgG1 antibody (mouse anti-human ICAM-1 and E-selectin-1; R&D Systems, Inc., Minneapolis,MN) for 20 min at 4° C.
The cells were then rinsed with isotonic phosphate buffered saline (PBS), pelleted and incubated with FITC-conjugated secondary antibody (goat anti-mouse IgG1) for 20 min at 4° C. The fluorescently labeled cells were rinsed in PBS and fixed in PBS containing 0.01% paraformaldehyde.
Fluorescence activated cell sorting (FACS) analysis was utilized for quantitation of receptor expression of ICAM-1 and E-selectin on HUVEC. The Becton Dickinson FACScanner was used with Lysis II software. Forward and side scatter fluorescence data identified 10,000 viable endothelial cells in each experimental group for unlabeled cells, nonspecific-antibody-labelled cells, ICAM-1-labeled cells and E-selectin-labeled cells. Fluorescence data were then accumulated on each group of 10,000 cells at 530 nm, the wavelength emitted by FITC.
The fluorescence data were expressed as histograms of events versus log fluorescence and analyzed in comparison to the autofluorescence of unlabelled cells as well as the fluorescence of baseline ICAM-1 labelled or E-selectin-1 labeled cells as appropriate. During inhibition studies, PKC inhibitors H7 100 nM and staurosporin 10 nM or Phospholipase A2 inhibitors BPB 10 μM or mepacrine 20 μM were added to cell cultures 30 min prior to irradiation.
PKC participates in both NFkB activation and signal transduction initiated by ionizing radiation (Hallahan et al., 1991). Furthermore, PLA2 participates in free-radical and x-ray-mediated PKC activation and gene induction (Hallahan et al., 1991). To determine whether PLA2 or PKC activation is required for radiation-mediated E-selectin induction, the inventors added the PKC inhibitors H7 and staurosporin or the PLA2 inhibitors BPB or mepacrine to HUVEC […] prior to irradiation. Following irradiation, cells were scraped and E-selectin was quantified by antibody labeling and flow cytometry.

[2] = rats, oral; cited from earlier work
[3] = tested on: HL60 cells / irradiated HUVECs; assay: adherence of HL60 cells to irradiated HUVECs; format: cell-based, human; settings: 1 mM; added 4 h after 10 Gy irradiation, 30 min prior to HL60 cells
Protocol: Human leukemia cell line HL60 has been used to quantify leukocyte adhesion to endothelial cells (Jones et al., 1995). HL60 cells were added to HUVECs after exposure to 10 Gy or cells treated with otherwise identical conditions without irradiation. Cultures were washed and cells were counted using a hemocytometer. […] Glycyrrhizin, carminic acid or sialyl Lewis X (1 mM each, SIGMA) were added to irradiated cells at 4 h after irradiation and 30 min prior to the addition of HL60 cells.

E-selectin = settings: competitive binding assay, cited from earlier work

| Structure (SMILES) | radiation-mediated E-selectin production [1] | adherence of HL60 cells to irradiated HUVECs [3] | also measured |
| --- | --- | --- | --- |
| CC1(C)[C@@H](O)CC[C@]2(C)[C@H]3C(=O)C=C4[C@@H]5C[C@@](C)(C(=O)O)CC[C@]5(C)CC[C@@]4(C)[C@]3(C)CC[C@@H]12 [18-β-glycyrrhetinic acid] |  |  | IC50 (selectin; read-out: IC50 (blocking selectin activity)): > 2000 µM |
| O=C(CBr)c1ccc(Br)cc1 [BPB] | not attenuated |  |  |
| CC1(C)[C@@H](O[C@H]2O[C@H](C(=O)O)[C@@H](O)[C@H](O)[C@H]2O[C@@H]2O[C@H](C(=O)O)[C@@H](O)[C@H](O)[C@H]2O)CC[C@]2(C)[C@H]3C(=O)C=C4[C@@H]5C[C@@](C)(C(=O)O)CC[C@]5(C)CC[C@@]4(C)[C@]3(C)CC[C@@H]12 [Glycyrrhizin] |  | blocked the adherence | absorption from the gut [2]: poorly absorbed; blocking of selectin binding to sLe^x (selectin): block selectin binding |
| CC1CNCCN1S(=O)(=O)c1cccc2cnccc12 (stereo not shown) [H7] | not attenuated |  |  |
| COC(=O)CCCCCCCCO[C@@H]1O[C@H](CO)[C@@H](O[C@@H]2O[C@@H](C)[C@@H](O)[C@@H](O)[C@@H]2O)[C@H](O[C@@H]2O[C@H](CO)[C@H](O)[C@H](O[C@]3(C(=O)O)C[C@H](O)[C@@H](NC(C)=O)[C@H]([C@H](O)[C@H](O)CO)O3)[C@H]2O)[C@H]1N [amino substituted sLe^a] |  |  | activity relative to the reducing tetrasaccharide sLe^x (E-selectin): 36 fold; IC50 (E-selectin; read-out: IC50 (blocking of E-selectin)): 21 ± 3 µM |
| Cc1c(C(=O)O)c(O)cc2c1C(=O)c1c(O)c([C@@H]3O[C@H](CO)[C@@H](O)[C@H](O)[C@H]3O)c(O)c(O)c1C2=O [carminic acid] |  | blocked the adherence | blocking of selectin binding to sLe^x (selectin): blocked selectin binding at concentrations comparable to those of glycyrrhizin |
| CCN(CC)CCCC(C)Nc1c2ccc(Cl)cc2nc2ccc(OC)cc12 (stereo not shown) [mepacrine] | not attenuated |  |  |
| CC(=O)N[C@H]1[C@H]([C@H](O)[C@H](O)CO)O[C@@](O[C@H]2[C@@H](O)[C@@H](CO)O[C@@H](O[C@H]3[C@H](O[C@@H]4O[C@@H](C)[C@@H](O)[C@@H](O)[C@@H]4O)[C@@H](NC(C)=O)C(O)O[C@@H]3CO)[C@@H]2O)(C(=O)O)C[C@@H]1O (stereo partly shown) [sialyl Lewis X, Neu5Acα2-3Galβ1-4[Fucα1-3]GlcNAc] |  | blocked the adherence |  |
| CN[C@@H]1C[C@H]2O[C@@](C)([C@@H]1OC)n1c3ccccc3c3c4c(c5c6ccccc6n2c5c31)C(=O)NC4 [staurosporin] | not attenuated |  |  |
